Assay [1] concerns the target T1, TgENR (Toxoplasma gondii, UniProt Q6UCJ9).
T1 sequence (Q6UCJ9 103-417 limits assumed): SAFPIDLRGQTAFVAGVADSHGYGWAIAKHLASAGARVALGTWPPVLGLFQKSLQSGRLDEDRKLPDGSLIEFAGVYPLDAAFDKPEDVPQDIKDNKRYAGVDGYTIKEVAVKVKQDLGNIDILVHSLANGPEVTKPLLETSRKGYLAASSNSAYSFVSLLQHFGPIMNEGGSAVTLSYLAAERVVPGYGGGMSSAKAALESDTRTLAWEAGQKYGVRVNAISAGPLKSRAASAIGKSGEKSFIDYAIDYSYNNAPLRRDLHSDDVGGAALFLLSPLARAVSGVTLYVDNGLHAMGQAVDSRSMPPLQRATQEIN
Nature of the assay: Thermal shift assay, ligand binding to TgENR alone. As to conditions: read-out: Kd of NAD^+ binding to TgENR; TSA, binary complex.

Assay [2] concerns PfENR. The note with it: cited from earlier work.
In assay [3] the test system is T. gondii tachyzoites (RH-YFP). The class given is cell-based, Toxoplasma gondii. The note with it: 72 h.
The test system of assay [4] is T. gondii parasites. The note with it: read-out: IC50, growth of T. gondii parasites; cited from earlier work.

The structures appear in SMILES notation. In brackets after ≈: the same amount, converted by molar mass.

Consider `NC(=O)c1ccc[n+]([C@@H]2O[C@H](COP(=O)([O-])OP(=O)(O)OC[C@H]3O[C@@H](n4cnc5c(N)ncnc54)[C@H](O)[C@@H]3O)[C@@H](O)[C@H]2O)c1` [NAD^+], for which, in assay [1], the Kd is 6000 µM.
As for `Oc1cc(Cl)ccc1Oc1ccc(Cl)cc1Cl` [Triclosan, triclosan], in assay [2] (PfENR), the “forward rate constant of tight binding complex formation” value was 0.055 s⁻¹. Further, the “T. gondii MIC50” value in assay [3] (RH-YFP tachyzoites in HFF, ± SEM) turned out to be 2.8 ± 0.2 µM. Besides, the MIC50 in assay [3] (Toxoplasma gondii, read-out: T. gondii MIC50) is 2.8 µM (≈ 0.811 µg/mL). In addition, the half-inhibitory concentration (IC50) in assay [4] was ~0.2 µM.
For the compound `NC(=O)C1=CN([C@@H]2O[C@H](COP(=O)(O)OP(=O)(O)OC[C@H]3O[C@@H](n4cnc5c(N)ncnc54)[C@H](O)[C@@H]3O)[C@@H](O)[C@H]2O)C=CC1` [NADH, nicotinamide adenine dinucleotide], the Kd in assay [2] (read-out: Kd for NADH, PfENR) was 51.6 µM.

Usually Kd stands for the concentration at which binding is half-saturated. By MIC50 is commonly meant an inhibitory concentration at the 50% level, which refers to growth in some studies and to a panel of isolates in others. A word on the IC50: it is the concentration at which inhibition is half-maximal.

The record behind these values is PMC3953223 (Biochemistry, 2013).
